The values that follow are results of earlier work, collected in patent publication US7198895B2, “In vitro cell-based methods for biological validation and pharmacological screening of chemical entities and biologicals” (priority 2000, dated 2007).

The subject of one data set is HepG2 cells. The following applies: HepG2 cells exposed to cis-platinum; ref (17).
The conditions of data set [1]: treated subjects.

Molecules are shown by their SMILES.

For `N.N.[Cl][Pt][Cl]` [cis-platinum], in the data set with HepG2 cells, the “number of genes consistently differentially expressed” value is on record as 14 genes and the “number of genes differentially expressed” value is listed as no less than 200 genes.

Take `CCNC(C)Cc1cccc(C(F)(F)F)c1` (stereo not drawn) [Fenfluramine]: in data set [1], the life-threatening adverse event result is reported as “valvular fibrosis”.
